Experiment [1] concerns Hyp1-NLuc Plasmodium falciparum-infected erythrocytes (new permeability pathway, NPP). The experiment in a line: microbe, parasite or virus in culture. As to conditions: Erythrocyte, 0.33 h, read-out: Mean RLU at 28 min (As % of DMSO control).
For experiment [2] the test system is unchanged. Description: microbe, parasite or virus in culture. Conditions: Erythrocyte, 0.33 h, read-out: % of control remaining.

Where two headings read alike, the source gives them in different places.

As for `Cc1cccc(N2C(=O)C3C(C2=O)C2(c4ccccc4)C(=O)C3(c3ccccc3)C(c3ccc4c(c3)OCO4)=C2c2ccc3c(c2)OCO3)c1` (stereo not drawn) [MMV007228], the activity at 2 µM was found to be 99.5% in experiment [1] and 107% in experiment [2].
The matching figures for `Clc1ccc2[nH]c3c(NCCCN4CCOCC4)ncnc3c2c1` [MMV006587]: 116% and 102%.
For `CCC(c1ccccc1)c1nn2c(-c3cccs3)nnc2s1` (stereo not drawn) [MMV665876] the same measures were 85.7% and 40.7%.
The matching figures for `OC1=C2C(=Nc3ccccc3SC2c2ccc(Br)cc2)c2ccccc21` (stereo not drawn) [MMV007127]: 108% and 114%.
As to `FC(F)(F)c1cccc(Nc2nc(-c3ccccc3)nc3ncccc23)c1` [MMV665798], the activity at 2 µM in experiment [1] was 103%; in experiment [2], 117%.
The matching figures for `CCCc1cc(O)c2c3c(c(=O)oc2c1)CN(C)CC3` [MMV665841]: 107% and 103%.
The matching figures for `COc1ccc2sc(N(Cc3cccnc3)C(=O)c3ccc(C#N)cc3)nc2c1` [MMV001239]: 92.1% and 64.1%.
For `CCCCCn1c(=N)n(CC(O)COc2cccc(C)c2)c2ccccc21` (stereo not drawn) [MMV000444] the same measures were 95.8% and 99.2%.
For `CCOc1ccc(-c2nc(NC(=O)c3cccc(S(C)(=O)=O)c3)sc2C)cc1` [MMV665913], the figures for the activity at 2 µM in experiment [1] and in experiment [2] were 98.8% and 106%, respectively.
For `CC1CC(C)CN(C(=O)c2ccc(Cl)cc2Cl)C1` (stereo not drawn) [MMV001344] the same measures were 106% and 107%.
For `CC(C)(C)c1ccc2c(c1)CN(Cc1ccc(Cl)cc1)CO2` [MMV000442] the same measures were 109% and 113%.
On to `CCOC(=O)C1=C(c2ccccc2)N=c2sc(=Cc3cc(C)n(-c4ccc(F)cc4)c3C)c(=O)n2C1c1cccc(OC)c1OC` (stereo not drawn) [MMV666601], for which the results for the activity at 2 µM in experiment [1] and in experiment [2] were 105% and 103%, respectively.
For `CCOC(=O)C1CCN(C(=O)CN2C(=O)c3ccccc3C2c2c[nH]c3ccccc23)CC1` (stereo not drawn) [MMV011576] the same measures were 107% and 107%.
As to `O=C(Nc1ccccc1O)c1ccc(-c2ccc(Cl)cc2Cl)o1` [MMV665948], the activity at 2 µM in experiment [1] was determined as 105%; in experiment [2], 120%.
Regarding `CCC(O)c1ccc(Br)cc1NC(=O)c1cccc(Cl)c1` (stereo not drawn) [MMV020654], the figures for the activity at 2 µM in experiment [1] and in experiment [2] were 113% and 105%, respectively.
As for `CN(C)c1ccc(-c2nc3cc(N)ccc3[nH]2)cc1` [MMV666102], the activity at 2 µM was 98.7% in experiment [1] and 90% in experiment [2].
In the case of `c1ccc(Cn2c(N=Nc3c(Nc4ccccc4)ccc4ccccc34)nc3ccccc32)cc1` [MMV666023], the activity at 2 µM in experiment [1] is 102%; in experiment [2], 101%.
As to `COc1ccc(-c2nonc2NC(=O)c2cccc(Cl)c2)cc1OC` [MMV020660], the figures for the activity at 2 µM in experiment [1] and in experiment [2] were 108% and 109%, respectively.
As to `CCOC(=O)c1cn(CC)c2cc(N3CCCCC3)c(F)cc2c1=O` [MMV665827], the values for the activity at 2 µM in experiment [1] and in experiment [2] were 104% and 100%, respectively.
The matching figures for `c1ccc2c(NCCc3c[nH]c4ccccc34)c3ccccc3nc2c1` [MMV006513]: 96.2% and 106%.
`CCOc1ccc(C=Cc2nc(=O)c3ccccc3o2)cc1` [MMV665940]: the activity at 2 µM in experiment [1] stood at 61.5%; in experiment [2], 31.3%.
On to `Oc1ccc(Cl)cc1CNc1nc2ccccc2[nH]1` [MMV665850], for which the activity at 2 µM in experiment [1] turned out to be 105%; in experiment [2] it was 110%.
The matching figures for `O=C(Nc1ccc(CN2CCOCC2)cc1)c1ccc(-c2ccc(Br)cc2)o1` [MMV665901]: 99.8% and 105%.
`CC(=O)c1sc(NC(=O)Nc2ccc(C)cc2C)nc1C` [MMV665894]: the activity at 2 µM in experiment [1] is 99.8%; in experiment [2], 93%.
For `Cc1ccc(Cn2c(N3CCC(C(=O)NCc4cccs4)CC3)nc3ccccc32)cc1` [MMV007564] the same measures were 96.6% and 104%.
In the case of `Oc1ccc(Br)cc1CN1CCN(Cc2ccc(Cl)cc2)CC1` [MMV665809], the activity at 2 µM was 93.3% in experiment [1] and 91.7% in experiment [2].
For `O=C(CCc1ccccc1)c1ccccc1OCC(O)CN1CCCCC1` (stereo not drawn) [MMV009015] the same measures were 107% and 106%.
In the case of `Cc1cc(C)c2nc(N3CCC(C(=O)NCCCN4CCC(N5CCCCC5)CC4)CC3)sc2c1` [MMV019780], the activity at 2 µM in experiment [1] is 107%; in experiment [2], 111%.
For `Cc1ccc(-c2nc3ccccc3o2)cc1NCc1cc(Cc2ccccc2)ccc1O` [MMV020912] the same measures were 99.2% and 94.7%.
For `CC(C)(C)c1ccc(C(=O)Nc2nc3ccccc3s2)cc1` [MMV142383], the activity at 2 µM turned out to be 110% in experiment [1] and 121% in experiment [2].
As to `CCOC(=O)c1cnc2c(CC)cccc2c1O` [MMV498479], the activity at 2 µM came out at 103% in experiment [1] and 107% in experiment [2].
On to `Cc1sc(NC(=O)c2ccco2)c(C(c2cccnc2)N2CCC(Cc3ccccc3)CC2)c1C` (stereo not drawn) [MMV396663], for which the activity at 2 µM in experiment [1] was 97%; in experiment [2], 92.5%.
The matching figures for `COc1ccccc1C(=O)ON=C(N)Cc1cccc2ccccc12` [MMV666686]: 102% and 96.4%.
As for `CN(C)c1ccc(C(O)(c2ccc(N(C)C)cc2)c2ccc(N(C)C)cc2)cc1` [MMV665941], the activity at 2 µM in experiment [1] came to 98.3%; in experiment [2], 96.5%.
As for `CCCCCC(=O)N1c2ccccc2N=C2CC(c3ccc(OC)c(OC)c3)CC(O)=C2C1c1ccc(C(F)(F)F)cc1` (stereo not drawn) [MMV085583], the activity at 2 µM in experiment [1] is 103%; in experiment [2], 102%.
Regarding `COCCNCC(O)Cn1c2ccc(Cl)cc2c2cc(Cl)ccc21` (stereo not drawn) [MMV019017], the activity at 2 µM in experiment [1] amounted to 105%; in experiment [2] it was 100%.
For `O=C(NC1CCCCC1)C(c1cccs1)N(CCc1ccccc1)C(=O)c1ccco1` (stereo not drawn) [MMV666106] the same measures were 96.6% and 105%.
`CC(C)(C)c1ccc(C(=O)Nc2c3c(nn2-c2cccc(Cl)c2)CSC3)cc1` [MMV666123]: the activity at 2 µM in experiment [1] was 104%; in experiment [2] it was 108%.
Take `OC(CNCc1ccccc1)Cn1c2ccccc2c2ccccc21` (stereo not drawn) [MMV000839]: the activity at 2 µM was determined as 107% in experiment [1] and 110% in experiment [2].
The matching figures for `Brc1ccc(Nc2nc3ccccc3nc2Nc2ccc(Br)cc2)cc1` [MMV007224]: 95.5% and 104%.
For `CN1CCN(c2nc(Nc3ccc(O)cc3)nc3ccccc23)CC1` [MMV000986] the same measures were 102% and 101%.
The matching figures for `Cc1ccc(-c2cc(C(=O)Nc3ccc(S(=O)(=O)N4CCCCC4)cc3)[nH]n2)c(O)c1` [MMV665906]: 100% and 105%.
Turning to `CCOC(=O)c1cnc2c(C)cc(C)cc2c1Nc1ccc(OC)c(OC)c1` [MMV008294], the activity at 2 µM in experiment [1] amounted to 104%; in experiment [2] it was 97.1%.
Turning to `CCN(CC)CCCNc1ccnc2cc3ccccc3cc12` [MMV665783], the results for the activity at 2 µM in experiment [1] and in experiment [2] were 101% and 106%, respectively.
For `Nc1ccc(-c2nc3cc(Cc4ccc5[nH]c(-c6ccc(N)cc6)nc5c4)ccc3[nH]2)cc1` [MMV665943] the same measures were 64.3% and 51.7%.
For `COc1cccc(C(=O)NC(c2ccc(C)cc2)c2cc(Cl)c3cccnc3c2O)c1` (stereo not drawn) [MMV665969] the same measures were 101% and 106%.
For `O=C(Nc1ccc(-c2nc3cc(NC(=O)c4ccc(Cl)cc4)ccc3[nH]2)cc1)c1ccc(Cl)cc1` [MMV006962] the same measures were 101% and 99.7%.
Take `CN(C)CCCNCc1ccc(-c2ccc(F)c(Cl)c2)o1` [MMV020505]: the results for the activity at 2 µM in experiment [1] and in experiment [2] were 105% and 106%, respectively.
The matching figures for `c1ccc2c(NCCCCCCNc3c4c(nc5ccccc35)CCCC4)c3c(nc2c1)CCCC3` [MMV019555]: 101% and 109%.
As to `Cc1ccc(N2C3c4ccccc4N(S(=O)(=O)c4ccc(C)cc4)C2c2ccccc2N3S(=O)(=O)c2ccc(C)cc2)cc1` [MMV007160], the activity at 2 µM in experiment [1] and in experiment [2] was 103% throughout.
Take `Cc1ccc(Nc2nc(N)c3ccccc3n2)cc1Cl` [MMV011522]: the activity at 2 µM was determined as 95.7% in experiment [1] and 99.9% in experiment [2].
As to `CC1CCCCN1CCCNC(=O)c1ccc2c(c1)sc1nc(-c3ccc(F)cc3)cn12` (stereo not drawn) [MMV000634], the activity at 2 µM turned out to be 94.7% in experiment [1] and 67.5% in experiment [2].
Turning to `COc1ccc(CCN2C(=O)c3[nH]nc(-c4cc(Cl)c(C)cc4O)c3C2c2ccccc2F)cc1` (stereo not drawn) [MMV396717], the activity at 2 µM turned out to be 96.5% in experiment [1] and 80.3% in experiment [2].
Regarding `CCOc1ccc2c(c1)CN(Cc1ccc(Cl)cc1)CO2` [MMV000443], the figures for the activity at 2 µM in experiment [1] and in experiment [2] were 99.2% and 94.2%, respectively.
The matching figures for `Nc1ccn(C2O[C@H](CO)[C@@H](O)[C@H]2O)c(=O)n1` (stereo partly drawn) [MMV638723]: 86.2% and 88.6%.
For `CCCCCCc1cc(O)c2c3c(c(=O)oc2c1)CCC(C)C3` (stereo not drawn) [MMV665987] the same measures were 89.8% and 94.7%.
Regarding `Cc1cc(Nc2cccc(F)c2)nc(NCc2ccccc2)n1` [MMV006319], the activity at 2 µM in experiment [1] was 102%; in experiment [2] it was 104%.

For the origin of these results see publication PMC5118696, “Identification of inhibitors that dually target the new permeability pathway and dihydroorotate dehydrogenase in the blood stage of Plasmodium falciparum” (Scientific Reports, 2016).
